Reference: the NIST ThermoML archive (doi:10.1016/j.tca.2016.01.016)
Where “and” joins values, the source holds several entries; their conditions need not be identical. Identical values can stand only once.

Assay: molar heat capacity at constant pressure
Conditions: 101.33 kPa, Crystal, Small sample (50 mg) DSC

O=P([O-])([O-])[O-].[Er+3] [erbium phosphate]
Conditions | molar heat capacity at constant pressure
348.15 K | 113.7 J/K/mol and 113.8 J/K/mol
353.15 K | 114.5 J/K/mol and 114.6 J/K/mol
358.15 K | 115.2 J/K/mol and 115.3 J/K/mol
363.15 K | 115.9 J/K/mol and 116.1 J/K/mol
368.15 K | 116.4 J/K/mol and 116.8 J/K/mol
373.15 K | 116.8 J/K/mol and 117.4 J/K/mol
378.15 K | 117.4 J/K/mol and 118.1 J/K/mol
383.15 K | 118.1 J/K/mol and 118.8 J/K/mol
388.15 K | 119.1 J/K/mol and 119.4 J/K/mol
393.15 K | 119.9 J/K/mol and 120 J/K/mol
398.15 K | 120.7 J/K/mol and 120.6 J/K/mol
403.15 K | 121.5 J/K/mol and 121.2 J/K/mol
408.15 K | 122.2 J/K/mol and 121.8 J/K/mol
413.15 K | 122.9 J/K/mol and 122.4 J/K/mol
418.15 K | 123.5 J/K/mol and 123 J/K/mol
423.15 K | 124 J/K/mol and 123.5 J/K/mol
428.15 K | 124.5 J/K/mol and 124.1 J/K/mol
433.15 K | 125 J/K/mol and 124.6 J/K/mol
438.15 K | 125.4 J/K/mol and 125.1 J/K/mol
443.15 K | 125.9 J/K/mol and 125.6 J/K/mol
448.15 K | 126.4 J/K/mol and 126.1 J/K/mol
453.15 K | 126.9 J/K/mol and 126.6 J/K/mol
458.15 K | 127.4 J/K/mol and 127.1 J/K/mol
463.15 K | 127.8 J/K/mol and 127.6 J/K/mol
468.15 K | 128.2 J/K/mol and 128 J/K/mol
473.15 K | 128.7 J/K/mol and 128.5 J/K/mol
478.15 K | 129.1 J/K/mol and 129 J/K/mol
483.15 K | 129.5 J/K/mol and 129.4 J/K/mol
488.15 K | 129.9 J/K/mol and 129.8 J/K/mol
493.15 K | 130.3 J/K/mol and 130.3 J/K/mol
498.15 K | 130.7 J/K/mol and 130.7 J/K/mol
503.15 K | 131.1 J/K/mol and 131.1 J/K/mol
508.15 K | 131.5 J/K/mol and 131.5 J/K/mol
513.15 K | 132 J/K/mol and 131.9 J/K/mol
518.15 K | 132.4 J/K/mol and 132.3 J/K/mol
523.15 K | 132.8 J/K/mol and 132.7 J/K/mol
528.15 K | 133.2 J/K/mol and 133.1 J/K/mol
533.15 K | 133.6 J/K/mol and 133.4 J/K/mol
538.15 K | 134 J/K/mol and 133.8 J/K/mol
543.15 K | 134.5 J/K/mol and 134.2 J/K/mol
548.15 K | 134.8 J/K/mol and 134.5 J/K/mol
553.15 K | 135.1 J/K/mol and 134.9 J/K/mol
558.15 K | 135.4 J/K/mol and 135.2 J/K/mol
563.15 K | 135.8 J/K/mol and 135.6 J/K/mol
568.15 K | 136.1 J/K/mol and 135.9 J/K/mol
573.15 K | 136.3 J/K/mol and 136.2 J/K/mol
578.15 K | 136.6 J/K/mol and 136.6 J/K/mol
583.15 K | 136.9 J/K/mol and 136.9 J/K/mol
588.15 K | 137.2 J/K/mol and 137.2 J/K/mol
593.15 K | 137.5 J/K/mol and 137.5 J/K/mol
598.15 K | 137.8 J/K/mol and 137.8 J/K/mol
603.15 K | 138 J/K/mol and 138.1 J/K/mol
608.15 K | 138.3 J/K/mol and 138.4 J/K/mol
613.15 K | 138.6 J/K/mol and 138.7 J/K/mol
618.15 K | 138.8 J/K/mol and 139 J/K/mol
623.15 K | 139 J/K/mol and 139.3 J/K/mol
628.15 K | 139.3 J/K/mol and 139.6 J/K/mol
633.15 K | 139.6 J/K/mol and 139.9 J/K/mol
638.15 K | 139.8 J/K/mol and 140.2 J/K/mol
643.15 K | 140.1 J/K/mol and 140.4 J/K/mol
648.15 K | 140.3 J/K/mol and 140.7 J/K/mol
653.15 K | 140.6 J/K/mol and 141 J/K/mol
658.15 K | 140.9 J/K/mol and 141.3 J/K/mol
663.15 K | 141.2 J/K/mol and 141.5 J/K/mol
668.15 K | 141.4 J/K/mol and 141.8 J/K/mol
673.15 K | 141.6 J/K/mol and 142 J/K/mol
678.15 K | 141.8 J/K/mol and 142.3 J/K/mol
683.15 K | 142.1 J/K/mol and 142.5 J/K/mol
688.15 K | 142.3 J/K/mol and 142.8 J/K/mol
693.15 K | 142.6 J/K/mol and 143 J/K/mol
698.15 K | 142.9 J/K/mol and 143.3 J/K/mol
703.15 K | 143.1 J/K/mol and 143.5 J/K/mol
708.15 K | 143.5 J/K/mol and 143.8 J/K/mol
713.15 K | 143.7 J/K/mol and 144 J/K/mol
718.15 K | 143.9 J/K/mol and 144.2 J/K/mol
723.15 K | 144.2 J/K/mol and 144.4 J/K/mol
728.15 K | 144.4 J/K/mol and 144.7 J/K/mol
733.15 K | 144.6 J/K/mol and 144.9 J/K/mol
738.15 K | 144.8 J/K/mol and 145.1 J/K/mol
743.15 K | 145 J/K/mol and 145.3 J/K/mol
748.15 K | 145.2 J/K/mol and 145.6 J/K/mol
753.15 K | 145.5 J/K/mol and 145.8 J/K/mol
758.15 K | 145.8 J/K/mol and 146 J/K/mol
763.15 K | 146.1 J/K/mol and 146.2 J/K/mol
768.15 K | 146.3 J/K/mol and 146.4 J/K/mol
773.15 K | 146.5 J/K/mol and 146.6 J/K/mol
778.15 K | 146.8 J/K/mol and 146.8 J/K/mol
783.15 K | 147 J/K/mol and 147 J/K/mol
788.15 K | 147.2 J/K/mol and 147.2 J/K/mol
793.15 K | 147.5 J/K/mol and 147.4 J/K/mol
798.15 K | 147.8 J/K/mol and 147.6 J/K/mol
803.15 K | 148 J/K/mol and 147.8 J/K/mol
808.15 K | 148.2 J/K/mol and 148 J/K/mol
813.15 K | 148.5 J/K/mol and 148.2 J/K/mol
818.15 K | 148.7 J/K/mol and 148.4 J/K/mol
823.15 K | 148.9 J/K/mol and 148.5 J/K/mol
828.15 K | 149.1 J/K/mol and 148.7 J/K/mol
833.15 K | 149.3 J/K/mol and 148.9 J/K/mol
838.15 K | 149.5 J/K/mol and 149.1 J/K/mol
843.15 K | 149.7 J/K/mol and 149.3 J/K/mol
848.15 K | 149.9 J/K/mol and 149.5 J/K/mol
853.15 K | 150.2 J/K/mol and 149.6 J/K/mol
858.15 K | 150.3 J/K/mol and 149.8 J/K/mol
863.15 K | 150.5 J/K/mol and 150 J/K/mol
868.15 K | 150.8 J/K/mol and 150.1 J/K/mol
